For one data set, the system named is RSV A2. Kind of data set: RSV plaque reduction assay. It counts as cell-based, RSV (RSV A2 ECACC, 0709161v). The note with it: human respiratory syncytial virus, HepG2, 48 h, Hep-G2 cells, RSV A2, 2 days; mean of at least two experiments. On the procedure:
Compounds were subjected to RSV plaque reduction assays according to the following protocol.
Hep-G2 cells (ECACC, 85011430) were passaged in flasks and seeded in 24-well plates in DMEM containing antibiotics and supplemented with 10% FBS. During inoculation and subsequent incubation, cells were cultured in DMEM containing 2% FBS. 100 plaque forming unit/well of RSV (RSV A2 ECACC, 0709161v) was mixed with eight serial dilutions of compound. Subsequently, 100 µL of the virus/compound mixtures was added to confluent Hep-G2 cell monolayers. The cells and virus/compound mixtures were incubated at 37° C. in a humidified 5% CO2 incubator for 2 h prior to removal of the inoculum and addition of 1 mL of overlay (DMEM containing 2% FBS and 0.8% CMC) containing compound dilutions. The cells and were incubated at 37° C. in a humidified 5% CO2 incubator for 2 days.
Cells were washed with PBS before adding 75%/25% v/v EtOH/MeOH, for 3 min. Fix ative was removed and plates were washed with PBS. A pre-titrated amount of the primary antibody was added in 200 µL PBS/2% milk powder, and plates incubated for 90 min at 37° C. The plates were washed 3 times with PBS/0.05% Tween20 before addition of rabbit anti-goat horse radish peroxidase in 200 µL PBS/2% milk powder, and incubated for 1 h at 37° C. Following three wash steps with PBS/0.05% Tween20, 200 µL ready-to-use TrueBlue was added and plates were incubated at rt for 10-15 min before washing with water. After removal of water, plates were air-dried in the dark.
(§1) Plates were scanned and analysed using the Immunospot S6 Macro analyser, which is equipped with BioSpot analysis software for counting immunostained plaques (virospots). Plaque counts were used to calculate % infection relative to the mean of the plaque count in the virus control wells for RSV. […] Plaque EC50 and cell toxicity CC50 values are a mean of at least two experiments and figures are rounded to whole units.
Background: Plaques are areas of infected cells; plaque reduction assays count them against a control.

A short description of the next data set: Cell cytotoxicity CC50. It counts as cell-based. The conditions noted are these: human; mean of at least two experiments.
From the text: as §1

The EC50 is the concentration giving half of the maximal effect. The CC50 is the concentration giving 50% cytotoxicity. A low value points to harm at low concentration. Consider `CS(=O)(=O)c1ccc(-c2nn3c(c2C(=O)N[C@H]2N=C(c4ccccc4)c4cccc(F)c4NC2=O)OC2CCC3C2)c(F)c1` (stereo partly drawn) [Example 32, 4-(2-Fluoro-4-methylsulfonylphenyl)-N-[(3S)-9-fluoro-2-oxo-5-phenyl-1,3-dihydro-1,4-benzodiazepin-3-yl]-7-oxa-2,3-diazatricyclo[6.2.1.02,6]undeca-3,5-diene-5-carboxamide], for which, in the data set with RSV A2, the EC50 was determined as 23 nM. Moreover, in “Cell cytotoxicity CC50”, the CC50 is more than 25000 nM.
Regarding `CCC1CCCn2nc(-c3ccc(C)nc3)c(C(=O)N[C@H]3N=C(c4ccccc4)c4ccccc4NC3=O)c2O1` (single isomer, unassigned) [Example 26-1, (5R*)-5-ethyl-2-(6-methylpyridin-3-yl)-N-[(3 S)-2-oxo-5-phenyl-2,3-dihydro-1H-1,4-benzodiazepin-3-yl]-5H,6H,7H,8H-pyrazolo[3,2-b][1,3]oxazepine-3-carboxamide], a half-maximal response in the data set on RSV A2 (EC50) required 314 nM. The CC50 in “Cell cytotoxicity CC50” is more than 25000 nM.
In the data set with RSV A2, `CC1CCCn2nc(-c3ccc(F)cc3F)c(C(=O)N[C@H]3N=C(c4ccccc4)c4cccc(F)c4NC3=O)c2O1` (stereo partly drawn) [Example 17, 2-(2,4-Difluorophenyl)-N-[(3S)-9-fluoro-2-oxo-5-phenyl-1,3-dihydro-1,4-benzodiazepin-3-yl]-5-methyl-5,6,7,8-tetrahydropyrazolo[5,1-b][1,3]oxazepine-3-carboxamide] registered an EC50 of 27 nM. The same compound had a CC50 in the data set “Cell cytotoxicity CC50” of more than 25000 nM.
For `CCc1ccc(-c2nn3c(c2C(=O)N[C@H]2N=C(c4ccccc4)c4cccc(F)c4NC2=O)O[C@@H]2CC[C@H]3C2)cn1` (single isomer, unassigned) [Example 30-1, (1S*,8R*)-4-(6-ethylpyridin-3-yl)-N-[(3S)-9-fluoro-2-oxo-5-phenyl-2,3-dihydro-1H-1,4-benzodiazepin-3-yl]-7-oxa-2,3-diazatricyclo[6.2.1.02,6]undeca-3,5-diene-5-carboxamide], the half-maximal effective concentration (EC50) with RSV A2 worked out at 61 nM. Besides, the CC50 in “Cell cytotoxicity CC50” was more than 25000 nM.
In the data set with RSV A2, `CC1CCCOc2c(C(=O)NC3N=C(c4ccccc4)c4ccccc4NC3=O)c(-c3ccccc3F)nn21` (single isomer, unassigned) [Example 14-1, (8R*)-2-(2-Fluorophenyl)-8-methyl-N-(2-oxo-5-phenyl-1,3-dihydro-1,4-benzodiazepin-3-yl)-5,6,7,8-tetrahydropyrazolo[5,1-b][1,3]oxazepine-3-carboxamide] yielded an EC50 of 61 nM. Moreover, the CC50 in the data set “Cell cytotoxicity CC50” was more than 25000 nM.
In turn, `CC1CCCn2nc(-c3ccc(F)cc3F)c(C(=O)N[C@H]3N=C(c4ccccc4)c4ccccc4NC3=O)c2O1` (single isomer, unassigned) [Example 16-1, (5R*)-2-(2,4-difluorophenyl)-5-methyl-N-[(3S)-2-oxo-5-phenyl-1,3-dihydro-1,4-benzodiazepin-3-yl]-5,6,7,8-tetrahydropyrazolo[5,1-b][1,3]oxazepine-3-carboxamide] displayed an EC50 in the data set on RSV A2 of 28 nM. In the data set “Cell cytotoxicity CC50”, this compound registered a CC50 of more than 25000 nM.
Consider `O=C(N[C@H]1N=C(c2ccccc2)c2cccc(F)c2NC1=O)c1c(-c2ccccc2F)nn2c1O[C@H]1CC[C@@H]2C1` (single isomer, unassigned) [Example 19-2, (1R*,8S*)-N-[(3 S)-9-fluoro-2-oxo-5-phenyl-2,3-dihydro-1H-1,4-benzodiazepin-3-yl]-4-(2-fluorophenyl)-7-oxa-2,3-diazatricyclo[6.2.1.0^2,6]undeca-3,5-diene-5-carboxamide], for which, in the data set on RSV A2, a half-maximal effect (EC50) was put at 53 nM. Besides, the CC50 in “Cell cytotoxicity CC50” was more than 25000 nM.
As to `CC1CCCOc2c(C(=O)N[C@H]3N=C(c4ccccc4)c4cccc(F)c4NC3=O)c(-c3ccccc3F)nn21` (stereo partly drawn) [Example 15, N-[(3S)-9-fluoro-2-oxo-5-phenyl-1,3-dihydro-1,4-benzodiazepin-3-yl]-2-(2-fluorophenyl)-8-methyl-5,6,7,8-tetrahydropyrazolo[5,1-b][1,3]oxazepine-3-carboxamide], in the data set with RSV A2, the EC50 is 64 nM. Besides, the CC50 in the data set “Cell cytotoxicity CC50” is more than 25000 nM.
Compound `O=C(N[C@H]1N=C(c2ccccc2)c2ccccc2NC1=O)c1c(-c2ccccc2)nn2c1OCCCC2` [Example 1, N-[(3S)-2-oxo-5-phenyl-1,3-dihydro-1,4-benzodiazepin-3-yl]-2-phenyl-5,6,7,8-tetrahydropyrazolo[5,1-b][1,3]oxazepine-3-carboxamide] returned a half-maximal effective concentration (EC50) with RSV A2 of 79 nM. In the data set “Cell cytotoxicity CC50”, this compound displayed a CC50 of more than 25000 nM.
For `O=C(N[C@H]1N=C(c2ccccc2)c2cccc(F)c2NC1=O)c1c(-c2ccccc2F)nn2c1S(=O)(=O)CCCC2` [Example 21, N-[(3S)-9-fluoro-2-oxo-5-phenyl-2,3-dihydro-1H-1,4-benzodiazepin-3-yl]-2-(2-fluorophenyl)-4,4-dioxo-5H,6H,7H,8H-4λ^6-pyrazolo[3,2-b][1,3]thiazepine-3-carboxamide] the same measures were 377 nM and more than 25000 nM.
On the same counts, the results for `CCNc1ccc(-c2nn3c(c2C(=O)N[C@H]2N=C(c4ccccc4)c4ccccc4NC2=O)OC(C)CCC3)c(F)n1` (single isomer, unassigned) [Example 10-1, (5R*)-2-[6-(ethylamino)-2-fluoropyridin-3-yl]-5-methyl-N-[(3S)-2-oxo-5-phenyl-1,3-dihydro-1,4-benzodiazepin-3-yl]-5,6,7,8-tetrahydropyrazolo[5,1-b][1,3]oxazepine-3-carboxamide] are 26 nM and more than 25000 nM.
On the same counts, the results for `O=C(N[C@H]1N=C(c2ccccc2)c2ccccc2NC1=O)c1c(-c2ccc(NC3CC3)nc2F)nn2c1OCCCC2` [Example 9, 2-[6-(Cyclopropylamino)-2-fluoropyridin-3-yl]-N-[(3S)-2-oxo-5-phenyl-1,3-dihydro-1,4-benzodiazepin-3-yl]-5,6,7,8-tetrahydropyrazolo[5,1-b][1,3]oxazepine-3-carboxamide] are 24 nM and more than 25000 nM.
With `CC(C)Nc1ccc(-c2nn3c(c2C(=O)N[C@H]2N=C(c4ccccc4)c4ccccc4NC2=O)OC(C)CCC3)c(F)n1` (single isomer, unassigned) [Example 12-1, (5R*)-2-[2-fluoro-6-(propan-2-ylamino)pyridin-3-yl]-5-methyl-N-[(3S)-2-oxo-5-phenyl-1,3-dihydro-1,4-benzodiazepin-3-yl]-5,6,7,8-tetrahydropyrazolo[5,1-b][1,3]oxazepine-3-carboxamide], the EC50 with RSV A2 amounted to 35 nM. Further, the cytotoxic concentration (CC50) in the data set “Cell cytotoxicity CC50” was more than 25000 nM.
For the compound `CCNc1ccc(-c2nn3c(c2C(=O)N[C@H]2N=C(c4ccccc4)c4cccc(F)c4NC2=O)OC(C)CCC3)c(F)n1` (single isomer, unassigned) [Example 11-2, (5S*)-2-[6-(ethylamino)-2-fluoropyridin-3-yl]-N-[(3S)-9-fluoro-2-oxo-5-phenyl-1,3-dihydro-1,4-benzodiazepin-3-yl]-5-methyl-5,6,7,8-tetrahydropyrazolo[5,1-b][1,3]oxazepine-3-carboxamide], the EC50 in the data set on RSV A2 was 9 nM. In the data set “Cell cytotoxicity CC50”, this compound returned a CC50 of more than 25000 nM.
Turning to `O=C(N[C@H]1N=C(c2ccccc2)c2ccccc2NC1=O)c1c(-c2ccccc2F)nn2c1OCCCC2` [Example 7, 2-(2-Fluorophenyl)-N-[(3S)-2-oxo-5-phenyl-1,3-dihydro-1,4-benzodiazepin-3-yl]-5,6,7,8-tetrahydropyrazolo[5,1-b][1,3]oxazepine-3-carboxamide], the EC50 with RSV A2 amounted to 52 nM. In “Cell cytotoxicity CC50”, this compound returned a CC50 of more than 25000 nM.
For `CCC1CCCn2nc(-c3ccccc3F)c(C(=O)N[C@H]3N=C(c4ccccc4)c4ccccc4NC3=O)c2O1` (single isomer, unassigned) [Example 24-1, (5R*)-5-ethyl-2-(2-fluorophenyl)-N-[(3S)-2-oxo-5-phenyl-2,3-dihydro-1H-1,4-benzodiazepin-3-yl]-5H,6H,7H,8H-pyrazolo[3,2-b][1,3]oxazepine-3-carboxamide] the same measures were 111 nM and more than 25000 nM.
As for `CC(C)Nc1ccc(-c2nn3c(c2C(=O)N[C@H]2N=C(c4ccccc4)c4cccc(F)c4NC2=O)OC(C)CCC3)c(F)n1` (stereo partly drawn) [Example 13, N-[(3S)-9-fluoro-2-oxo-5-phenyl-1,3-dihydro-1,4-benzodiazepin-3-yl]-2-[2-fluoro-6-(propan-2-ylamino)pyridin-3-yl]-5-methyl-5,6,7,8-tetrahydropyrazolo[5,1-b][1,3]oxazepine-3-carboxamide], a half-maximal response in the data set with RSV A2 (EC50) required 34 nM. The same compound came in with a CC50 in the data set “Cell cytotoxicity CC50” of more than 25000 nM.
Regarding `CC(C)Nc1ccc(-c2nn3c(c2C(=O)N[C@H]2N=C(c4ccccc4)c4cccc(F)c4NC2=O)OCC(F)(F)CC3)cn1` [Example 23, 6,6-Difluoro-N-[(3S)-9-fluoro-2-oxo-5-phenyl-2,3-dihydro-1H-1,4-benzodiazepin-3-yl]-2-{6-[(propan-2-yl)amino]pyridin-3-yl}-5H,6H,7H,8H-pyrazolo[3,2-b][1,3]oxazepine-3-carboxamide], a half-maximal effect in the data set on RSV A2 (EC50) was put at 52 nM. In addition, in the data set “Cell cytotoxicity CC50”, the CC50 was more than 25000 nM.

The values above are taken from US20230365585A1, “BENZODIAZEPINE DERIVATIVES USEFUL IN TREATING A RESPIRATORY SYNCYTIAL VIRUS INFECTION” (priority 2020, published 2023).
